According to US20100279990A1, “ANTIPROLIFERATIVE COMPOUNDS, COMPOSITIONS AND METHODS OF USE” (RAMOT AT TEL-AVIV UNIVERSITY LTD., priority 2006, published 2010):

Experiments:
PRXF LNCAP = assay: Monolayer Assay, PI: PRXF LNCAP (Prostate); type: cell-based, human
From the text: This example illustrates cell proliferation data in the form of IC50, IC70 and IC90 values obtained by exposure of human cancer cell-lines to compound (Ia). […].

[1] = tested on: CEM/C1 human leukemia cells; assay: Cell proliferation of CEM/C1 human leukemia cells, 3H thymidine incorporation; type: cell-based
Procedure: […] Cells, 10,000/well, were harvested and the incorporated radioactivity was determined by liquid scintillation in a beta counter.

In the case of `CN[C@H]1CC[C@@H](c2ccc(Cl)c(Cl)c2)c2ccc(C#CCCCO)cc21` [compound (Ia), (1S-cis)-4-(3,4-dichlorophenyl)-7-(5-hydroxy-1-pentyn-1-yl)-1,2,3,4-tetrahydro-N-methyl-1-naphthalenamine hydroiodide], the “Test/Control (%)” value (PRXF LNCAP; 2.3 μg/ml) was 56%, the Test/Control activity class (PRXF LNCAP; 2.3 μg/ml) was “− (− (T/C = 50))” and the “Test/Control (%)” value (PRXF LNCAP; 7.5 μg/ml) was 4%. For the same compound, the Test/Control activity class (PRXF LNCAP; 7.5 μg/ml) was “+++ (+++ (T/C < 10))”, the “Test/Control (%)” value (PRXF LNCAP; 23. μg/ml) was 3% and the Test/Control activity class (PRXF LNCAP; 23. μg/ml) was “+++ (+++ (T/C < 10))”. The “Test/Control (%)” value (PRXF LNCAP; 75. μg/ml) was 3%, the Test/Control activity class (PRXF LNCAP; 75. μg/ml) was “+++ (+++ (T/C < 10))” and the “Test/Control (%)” value (PRXF LNCAP; .75 μg/ml) was 78%. For the same compound, the Test/Control activity class (PRXF LNCAP; .75 μg/ml) was “− (− (T/C = 50))”, the “effect compared to sertraline and paroxetine” value [1] was “significantly higher effects compared to sertraline and paroxetine” and the cell proliferation ([1]; 1 μM, 3H thymidine incorporation 24 hours) was 38.8 % of controls. The inhibition at 10 µM ([1]; Homo sapiens, 10 μM, 3H thymidine incorporation) was about 95% and the “effect on cell proliferation” value ([1]; already evident at 1 μM) was “dose dependent decrease in cell proliferation”.
